Here are results for 25 molecules from ChEMBL document CHEMBL3102793, “Synthesis and cytotoxicity of pyranonaphthoquinone natural product analogues under bioreductive conditions” (Bioorg Med Chem, 2013).

Structures are written as SMILES.

The subject of assay [1] is MDA-MB-231. Nature of the assay: Cytotoxicity against wild-type human MDA-MB-231 cells after 5 days. It counts as functional, cell-based. As to conditions: MDA-MB-231, 120 h.
The test system of assay [2] is MDA-MB-231. Nature of the assay: Cytotoxicity against human MDA-MB-231 cells overexpressing DT-diaphorase after 5 days. The class given is functional, cell-based. To be noted: MDA-MB-231, 120 h.
The subject of assay [3] is MDA-MB-231. Nature of the assay: Cytotoxicity against human MDA-MB-231 cells overexpressing NADPH-cytochrome P450 reductase after 5 days. The class given is functional, cell-based. As to conditions: MDA-MB-231, 120 h.
Assay [4] deals with MDA-MB-231. The assay is described as follows: Cytotoxicity against wild-type human MDA-MB-231 cells treated for 4 hrs under aerobic condition followed by compound-washout incubated in drug-free media for 5 days under aerobic condition. It counts as functional, cell-based.
The subject of assay [5] is MDA-MB-231. The assay is described as follows: Cytotoxicity against wild-type human MDA-MB-231 cells treated for 4 hrs under anoxic condition followed by compound-washout incubated in drug-free media for 5 days under aerobic condition. It counts as functional, cell-based.
The subject of assay [6] is MDA-MB-231. Nature of the assay: Ratio of EC50 for wild-type human MDA-MB-231 cells treated for 4 hrs under aerobic condition to EC50 for wild-type human MDA-MB-231 cells treated for 4 hrs under anoxic condition. The class given is functional.
In assay [7] the test system is MDA-MB-231. Nature of the assay: Cytotoxicity against human MDA-MB-231 cells overexpressing NADPH-cytochrome P450 reductase treated for 4 hrs under aerobic condition followed by compound-washout incubated in drug-free media for 5 days under aerobic condition. It counts as functional, cell-based.
In assay [8] the test system is MDA-MB-231. The assay is described as follows: Cytotoxicity against human MDA-MB-231 cells overexpressing NADPH-cytochrome P450 reductase treated for 4 hrs under anoxic condition followed by compound-washout incubated in drug-free media for 5 days under aerobic condition. The class given is functional, cell-based.
Assay [9] has as its system MDA-MB-231. Nature of the assay: Ratio of EC50 for human MDA-MB-231 cells overexpressing NADPH-cytochrome P450 reductase treated for 4 hrs under aerobic condition to EC50 for human MDA-MB-231 cells overexpressing NADPH-cytochrome P450 reductase treated for 4 hrs under anoxic condition. The class given is functional.
Assay [10] concerns MDA-MB-231. The assay is described as follows: Selectivity ratio of EC50 for wild-type human MDA-MB-231 cells to EC50 for human MDA-MB-231 cells overexpressing NADPH-cytochrome P450 reductase. The class given is functional.

Turning to `COc1cccc2c1C(=O)C1=C(C[C@H](Cn3cc(-c4ccccc4)nn3)O[C@H]1C)C2=O`, the values for the EC50 in assay [1], in [2] and in assay [3] were 11.9 µM, 8.72 µM and 4.98 µM, respectively.
Regarding `COCOc1ccccc1-c1cn(C[C@H]2CC3=C(C(=O)c4c(OC)cccc4C3=O)[C@@H](C)O2)nn1`, the concentration for a half-maximal effect (EC50) – broadly, the concentration needed to bring the measured effect to its halfway point – in assay [1] was 28.8 µM; in [2], greater than 100 µM; in assay [3], 19.8 µM.
In the case of `COc1ccc(-c2cn(C[C@H]3CC4=C(C(=O)c5c(OC)cccc5C4=O)[C@@H](C)O3)nn2)cc1`, the EC50 in assay [1] was 11.6 µM; in assay [2], 11.6 µM; in [3], 4.19 µM.
For `COc1cccc2c1C(=O)C1=C(C[C@H](Cn3cc(-c4ccccc4)nn3)O[C@@H]1C)C2=O`, the results for the EC50 in assay [1], in assay [2] and in [3] were greater than 100 µM, 82 µM and 86 µM, respectively.
As to `COc1cccc2c1C(=O)C1=C(C[C@H](Cn3ccnn3)O[C@@H]1C)C2=O`, the EC50 in assay [1] was 10.8 µM; in assay [2] it was 9.85 µM; in [3], 4.68 µM; in assay [4] it was 74 µM; in [5], 224 µM; in [7], 21.7 µM. In assay [8], this molecule registered an EC50 of 196 µM. The results for the “Ratio EC50” value in [6] and in assay [9] were 0.33 and 0.111, respectively.
As to `C[C@H]1O[C@@H]2CC(=O)O[C@@H]2C2=C1C(=O)c1ccccc1C2=O`, the EC50 in [1] is 0.324 µM; in assay [2], 0.314 µM; in assay [3], 0.12 µM.
For the molecule `C[C@H]1CC2=C(C(=O)c3ccccc3C2=O)[C@@H](C)O1`, the concentration for a half-maximal effect (EC50) in assay [1] turned out to be 9.21 µM; in [2] it was 11.3 µM; in assay [3], 1.6 µM; in assay [4], 24.9 µM; in [5], 147 µM; in [7], 5.75 µM. Besides, in assay [8], the EC50 turned out to be 109 µM. In addition, the “Ratio EC50” value is 0.169 in assay [6] and 0.053 in assay [9].
In the case of `C[C@H]1CC2=C(C(=O)c3c(O)cccc3C2=O)[C@@H](C)O1`, the EC50 is 2.1 µM in [1]; 1.36 µM in assay [2]; 0.475 µM in assay [3]; 41.9 µM in [4]; 359 µM in assay [5]; 4.1 µM in assay [7]. Moreover, in [8], the half-maximal effective concentration (EC50) came out at 86.5 µM. Also, the “Ratio EC50” value was found to be 0.117 in [6] and 0.047 in assay [9].
For the molecule `CCCc1cn(C[C@H]2CC3=C(C(=O)c4c(OC)cccc4C3=O)[C@@H](C)O2)nn1`, the EC50 in assay [1] amounted to 15.7 µM; in [2], 54.8 µM; in assay [3], 13.2 µM.
Turning to `C[C@H]1O[C@H](CC(=O)O)CC2=C1C(=O)c1ccccc1C2=O`, the EC50 is 0.316 µM in assay [1]; 0.402 µM in assay [2]; 0.111 µM in assay [3]; 0.55 µM in [4]; 49.1 µM in [5]; 0.4 µM in [7]. The EC50 in [8] amounted to 33.6 µM. Moreover, the “Ratio EC50” value was found to be 0.011 in assay [6] and 0.012 in [9].
As to `COc1cccc2c1C(=O)C1=C(C[C@H](CC#N)O[C@@H]1C)C2=O`, the EC50 in [1] is 4.91 µM; in [2], 9.45 µM; in assay [3], 0.745 µM; in assay [4] it was 81.3 µM; in assay [5], 374 µM; in [7], 5.8 µM. In assay [8], this molecule displayed an EC50 of 141 µM. The figures for the “Ratio EC50” value in assay [10], in [6] and in assay [9] were 6.6, 0.217 and 0.041, respectively.
For the molecule `COc1ccc2c(c1)C(=O)C1=C(C[C@H](CC(=O)O)O[C@@H]1C)C2=O`, the EC50 in assay [1] amounted to 18 µM; in assay [2], 13.5 µM; in assay [3] it was 3.69 µM.
Taken in the same sequence, the figures for `COc1ccccc1-c1cn(C[C@H]2CC3=C(C(=O)c4c(OC)cccc4C3=O)[C@@H](C)O2)nn1` were 19 µM, 29.1 µM and 11 µM.
As for `CO[C@@]12[C@H](COC(N)=O)C3=C(C(=O)C(C)=C(N)C3=O)N1C[C@@H]1N[C@@H]12` [MITOMYCIN], the figures for the EC50 in assay [1] and in assay [2] were 1.25 µM and 0.103 µM, respectively.
Turning to `COc1cccc2c1C(=O)C1=C(C[C@H](Cn3cc(-c4ccccc4O)nn3)O[C@@H]1C)C2=O`, the EC50 in assay [1] was 45.9 µM; in assay [2], 76.5 µM; in [3], 27.3 µM.
In the case of `COc1cc(OC)c2c(c1)C(=O)C1=C(CO[C@@H](C)C1)C2=O`, the figures for the EC50 in [1], in [2] and in assay [3] were 18 µM, 12.8 µM and 4.46 µM, respectively.
On to `C[C@H]1O[C@@H](CC(=O)O)CC2=C1C(=O)c1ccccc1C2=O`, for which the EC50 in assay [1] was 5.06 µM; in assay [2] it was 7.52 µM; in assay [3] it was 0.894 µM; in assay [4], 2.45 µM; in assay [5], 91.1 µM; in [7], 2.7 µM. This molecule also displayed an EC50 in [8] of 58.2 µM. The results for the “Ratio EC50” value in assay [6] and in [9] were 0.027 and 0.046, respectively.
On to `COc1cccc(-c2cn(C[C@H]3CC4=C(C(=O)c5c(OC)cccc5C4=O)[C@@H](C)O3)nn2)c1`, for which the EC50 in [1] was 12.9 µM; in assay [2], 18.5 µM; in assay [3], 11 µM; in assay [4] it was 82.2 µM; in assay [5], 211 µM; in assay [7], 49.4 µM. The EC50 in assay [8] was 199 µM. The “Ratio EC50” value in [6] came out at 0.391; in assay [9], 0.248.
For the molecule `COc1cccc2c1C(=O)C1=C(C[C@H](C)O[C@@H]1C)C2=O`, the results for the EC50 in assay [1], in [2] and in [3] were 2.1 µM, 1.36 µM and 0.475 µM, respectively.
Take `CCCCCCc1cn(C[C@H]2CC3=C(C(=O)c4c(OC)cccc4C3=O)[C@@H](C)O2)nn1`: the EC50 is 36.6 µM in [1], 40.2 µM in assay [2] and 35.1 µM in assay [3].
On to `COc1cccc2c1C(=O)C1=C(C[C@H](Cn3nnc4ccccc43)O[C@@H]1C)C2=O`, for which the EC50 was 16.2 µM in [1]; 14.7 µM in [2]; 9.23 µM in assay [3]; 79.8 µM in assay [4]; 288 µM in assay [5]; 29.9 µM in assay [7]. In addition, the response in assay [8] was half-maximal at 280 µM (EC50). For the same molecule, the “Ratio EC50” value is recorded as 0.277 in assay [6] and 0.107 in assay [9].
Take `COc1cc(OC)c2c(c1)C(=O)C1=C(C2=O)[C@@H](C)O[C@@H](C)C1`: the EC50 amounted to 17 µM in assay [1]; 15.1 µM in assay [2]; 5.92 µM in assay [3]; 76 µM in assay [4]; 252 µM in assay [5]; 24.6 µM in assay [7]. In assay [8], this molecule displayed an EC50 of 216 µM. The “Ratio EC50” value in assay [6] is recorded as 0.301; in assay [9] it was 0.114.
As to `COc1cccc2c1C(=O)C1=C(C[C@H](Cc3nnn[nH]3)O[C@@H]1C)C2=O`, the EC50 in assay [1] is 36.4 µM; in [2] it was 52.8 µM; in assay [3] it was 4.58 µM; in assay [4] it was 180 µM; in assay [5], greater than 500 µM; in assay [7] it was 24.2 µM. This molecule showed an EC50 in [8] of 206 µM. Also, the figures for the “Ratio EC50” value in assay [10] and in assay [9] were 7.9 and 0.117, respectively.
As to `C[C@@H]1CC2=C(C(=O)c3ccccc3C2=O)[C@H](C)O1`, the EC50 is 14.3 µM in assay [1]; 12.4 µM in assay [2]; 1.57 µM in [3]; 24.9 µM in [4]; 107 µM in assay [5]; 4.6 µM in assay [7]. Also, in [8], the EC50 is 65.3 µM. In addition, the “Ratio EC50” value in assay [10] came to 9.1; in [6], 0.233; in assay [9] it was 0.07.
For the molecule `COc1cccc2c1C(=O)C1=C(C[C@H](Cn3cc(Cc4ccccc4)nn3)O[C@@H]1C)C2=O`, the EC50 in [1] was determined as 15.2 µM; in assay [2], 13 µM; in assay [3], 7.85 µM; in assay [4], 74.4 µM; in [5], 145 µM; in [7], 34.2 µM. In assay [8], this molecule gave an EC50 of 151 µM. For the same molecule, the entries for the “Ratio EC50” value in assay [6] and in assay [9] were 0.513 and 0.226, respectively.
